Experimental data as given in a melting point compilation (Tetko et al.).

melting point [°C] | Structure (SMILES)
92 | OC1c2ccccc2CCc2ccccc21
12 | CCCCCCCC=CC(=O)O
121 to 122 | CN1C(=O)N2CCc3ccccc3C2(c2ccc(Cl)cc2)C1=O (configuration not stated)
130 to 131 | COC(=O)c1sccc1N1C(=O)C=CC1=O
29 | CCc1ccccc1Nc1ccccc1CC
47 | CC(=O)NCCN
180 | O=S(=O)(Oc1ccccc1)c1ccccc1C=Cc1ccccc1S(=O)(=O)Oc1ccccc1
125 | COC(=O)c1ccc2[nH]ccc2c1
116 | C=CCSC(=O)n1c(N)c(-c2ccccc2C)c(=O)n1C(C)C
30 | Nc1cccc(C=O)c1
295 | Cn1c(=O)c(C2=NNC(=O)C2=C2c3ccccc3-c3ccccc32)c(O)c2ccccc21
137 to 139 | Cc1ccc(C=C(Oc2cccc(C)c2)c2nc3ccccc3s2)cc1
110 | CCC(CO)(CO)COCC(CC)(CO)CO
203 to 205 | Cc1nc(NC(=N)N)sc1Br
126 to 127 | O=S(=O)(c1ccc(N=C=S)cc1)N1CCCCC1
73.2 to 73.9 | OCc1cc(F)cc2c1OCOC2
156 to 157 | COC(=O)c1sc(-c2ccc(C(C)(C)C)cc2)cc1N
54 | Cc1c(Cl)ccc([N+](=O)[O-])c1Cl
243 to 244 | Nc1nnc(S)s1
170 to 176 | Nc1ncccc1O
144 | CC(=O)OC[C@H]1O[C@@H](OC(C)=O)[C@H](OC(C)=O)[C@@H](OC(C)=O)[C@H]1OC(C)=O
86 | Cc1cccnc1C#N
78 to 79 | Cc1nn(C)c(Cl)c1C=O
35 to 37 | C1COCCOCCOCCOCCN1

melting point [°C] | Structure (SMILES)
6 | OCCOCCOCCOCCOCCOCCO
90 | CC(=O)Oc1ccccc1C(C)=O
63 | N#CC1CNc2ccccc2O1 (configuration not stated)
130 | Nc1c(Br)cc(Br)cc1[N+](=O)[O-]
267 to 270 | O=C1OC(=O)C23Cc4ccccc4CC12Cc1ccccc1C3 (configuration not stated)
50 | OCCCN1CCNCC1
101 | c1c2c(cc3c1CC3)CC2
142 | CC(=O)Oc1ccccc1C(=O)O
149 to 150 | COC(=O)c1scc(C#N)c1N
52 | NCCCCCCCCN
235 to 236 | Nc1ccc(C#Cc2ccc(N)cc2)cc1
36.5 | O=C1CCC(c2ccccc2)O1 (configuration not stated)
228 | Cc1cc(C(F)(F)F)n2nc(N)c(/N=N/c3cc(Cl)c(Cl)cc3Cl)c2n1
227 | CC(=O)Nc1cc([N+](=O)[O-])c(C=Cc2ccccc2)cc1C=Cc1ccccc1
184 to 185 | O=C(O)c1cc(Br)cnc1Br
40 to 41 | COC(=O)c1cc(C)c(S(=O)(=O)Cl)s1
135 | O=C(c1ccc(Cl)cc1)c1noc(-c2ccc3ccccc3c2)c1S(=O)(=O)c1ccccc1
164 to 166 | Nc1cc(-c2ccc(F)cc2)nc(N)n1
69 | Clc1nc(Cl)c(Cl)c(Cl)n1
129 | CC(c1ccccc1)C(C(=O)O)c1ccccc1 (configuration not stated)
34 | Brc1ccc2cccnc2c1
210 to 212 | NS(=O)(=O)c1ccc(N=C=S)cc1
127 to 131 | CC(C)(C)OC[C@H](NC(=O)OCC1c2ccccc2-c2ccccc21)C(=O)O
57 | CCOC(=O)c1ccc(N=C=S)cc1

Structure (SMILES) | melting point [°C]
C#CC1(O)CCC2C3CCC4CC(O)CCC4(C)C3CCC21C (configuration not stated) | 257
O=C(Cc1ccccc1)OCCc1ccccc1 | 26.5
Cc1sc2ccccc2c1CC1=NCCN1 | 156
Cn1c(=O)c(C2=NNC(=O)C2)c(O)c2ccccc21 | 287
